US7893023B2, “Prodrugs activated by plasmin and their use in cancer chemotherapy” (priority 2000, dated 2011)
Like-named read-outs stand apart in the source and are kept apart here.

Columns and labels:
OF-1 mice = conditions: obtained under the same conditions, known value; cited from earlier work
[1] = test system: LS174T colon tumor xenografts; assay: Chemotherapeutic activity in the LS174T human colon tumor xenograft model; assay type: in vivo, mice
Source text: Animals were kept under pathogen-free conditions with food and water supplied ad libitum, and kept for about one week before implantation of the tumors. Fragments (˜2 mm) of tumors grown in nude mice were implanted subcutaneously in both flanks of the mice. Tumors were generally allowed to grow to attain a diameter of 5-6 mm each (approximately two weeks).
The mice weighed 20.0-25.0 g at the beginning of the study. They were selected and assigned to groups in order to have equally distributed tumor volumes in the different groups. In each group, mice were labeled individually. Treatments were assigned randomly to those groups.
All dosing solutions were prepared the day of injection by dissolution in water ( 1/10 of the expected final volume) and further dilution with 0.9% (w/v) NaCl. The concentration of these solutions was checked (A475 nm determination) after sterilization by filtration (0.22 μm) and adjusted to the final required value using sterile 0.9% (w/v) NaCl).
Treatments were administered by the i.p. route. The mice received a constant volume (10 μl/g) of either saline (control group) or drug. Mortality and clinical signs were recorded up to 4 hours post-treatment on dosing days, and daily thereafter. Their behavior was equally noted. Individual body weights were generally recorded daily until day 14 and at least twice a week thereafter.
Tumor growth was monitored by two-dimensional measurements using calipers and a precision of 0.5 mm. Tumor volumes were calculated according to the following formula: Vt=[length×(width)^2]/2
Median relative tumor volumes (RTV) were calculated as tumor volumes determined at individual days divided by tumor volumes on day 0. For treated groups, growth inhibition was estimated as the percentage ratio of median RTV of treated (T) mice versus controls (C) on each day of tumor treatment. T/C(%)=[Median RTV(treated group)/Median RTV(control group)]×100
The minimal T/C value (%) for each treatment was used as a parameter for maximum efficacy. Duration of growth inhibition was assessed by considering growth delays (T-C) for one (200%) and two (400%) doublings of the median RTV).
To determine the statistical significance of any difference in median RTV between two groups, the Mann-Whitney test was used. The test was conducted at a p level of 0.05 (two tailed) using the GraphPad Prism 3.00 software.
Female Swiss nude mice were 5 weeks old upon delivery (See General Methods, Section O). They were kept under pathogen-free conditions with food and water supplied ad libitum, and kept for about one week before implantation of the tumors. Fragments (˜2 mm) of LS174T tumors grown in nude mice were implanted subcutaneously in both flanks of the mice used in the study. Tumors were left to grow for 17 days. At that time, the mice weighed about 20.5-26.5 g.
Mice were then selected and assigned to groups in order to have equally distributed tumor volumes in different groups (5-6 mice, 9-10 tumors/group). The dose levels of Compound II, DOX used in the study, were selected on the basis of a lethality study previously conducted on OF-1 normal mice. The dose of DOX was based on previous chemotherapy experiments performed in nude mice with the same dosing schedule.
Treatments were administered by the i.p. route on days 0, 1, 2, 3 and 4, the mice receiving a constant volume (10 μl/g) of either saline or the different dosing solutions. DOX was used at 3.8 μmol/kg, Compound II, DOX was used at 25.9 μmol/kg and 34.5 μmol/kg. Clinical signs (recorded 0.5, 1, 2 and 4 hours after dosing and daily between dosing days) and body weights (recorded on each day of tumor measurement) were used to assess treatment toxicity, tumor growth was monitored on days 7, 12, 15, 19, 22, 26, 29, 33 and 36 by two-dimensional measurements using calipers and a precision of 0.5 mm.

[2] = DOX 3.8 μmol/kg, Compound II, DOX lower dosage 25.9 μmol/kg, i.p. days 0-4

Description for B16-B16 murine melanoma: Male C57-B16 black mice were 5 weeks old upon delivery. The body weight of the animals was approximately 20 g at the beginning of the test (See General Methods, Section O).
The animals were divided in eight groups (5 mice per group). Confluent murine melanoma B16-B16 cells (See General Methods, Section E.) were washed twice with PBS and EDTA (See General Methods, Section F.) twice and detached with trypsin (2 min incubation at 37° C.), that was thereafter neutralized by DMEM-F12 (containing 10% of calf serum). The cells were centrifuged for 5 min at 300 g. The pellet was resuspended twice in the DMEM-F12 without serum and centrifuged 5 min at 300 g.
The number of cells per ml of DMEM-F12 was then estimated (Brucker chamber) and the dilution of 2.5×10^5 cells/ml prepared. Each animal received 200 μl of this suspension (5.0×10^4 cells) in its tail vein. The day of injection was considered day 0 of the study. […] Animals were weighed on days 0, 1, 3, 6, 8 and 14. Their behavior and eventual clinical signs were also noted. All animals were sacrificed on day 14 and autopsied.
The lung lobes were fixed in a Bouin's solution (picric acid: formaldehyde, 40%: acetic acid, 15:5:1, v/v). Every lobe immersed in the fixing solution in a Petri flask was uniformly lighted against an opaque black background. Pictures of the front and back side of every lobe were taken with the help of a light microscope, scanned and digitized. The relative surface occupied by B116-B16 colonies was then estimated with the Scion Image Program.
The individual mean values were analyzed with the Scheffe's F-test to evaluate the statistical significance of differences observed between the groups.

COc1cccc2c1C(=O)c1c(O)c3c(c(O)c1C2=O)C[C@@](O)(C(=O)CO)C[C@@H]3O[C@H]1C[C@H](N)[C@H](O)[C@H](C)O1 [DOX, Doxorubicin]
LD50 (OF-1 mice): 4.1 µmol/kg | antitumor activity ([1]; DOX 3.8 μmol/kg i.p. days 0-4): total lack of activity | tumor regression ([1]; DOX 3.8 μmol/kg i.p. days 0-4): No tumor regression | treatment-related mortality [1, 2]: No treatment-related mortality | weight loss [1, 2]: no significant weight loss | lung surface occupied by B16-B16 metastases (B16-B16 murine melanoma; 5.2 μmol/kg i.p. days 1 and 3, day 14): 44.0±6.3% | mean body weight, % of initial (B16-B16 murine melanoma; 5.2 μmol/kg, day 14): 104.7% | lung surface occupied by B16-B16 metastases (B16-B16 murine melanoma; 8.6 μmol/kg i.p. days 1 and 3, day 14): 23.4±5.7% | mean body weight, % of initial (B16-B16 murine melanoma; 8.6 μmol/kg, end of study): 110% | activity on lung metastases (B16-B16 murine melanoma; 5.2 and 8.6 μmol/kg): did not show any significant activity
